Source: US4281121A, “1,3,4-Thiadiazole-2-carboxylic acid derivatives, process for making the same and fungicidal and nematocidal compositions containing same” (Schering Aktiengesellschaft, priority 1978, dated 1981)
Like-named read-outs stand apart in the source and are kept apart here.

Key:
[1] = test system: Venturia inaequalis; test: Prophylactic leaf treatment of apples in open field test against Venturia inaequalis; type: in vivo; conditions: 3 weeks
[2] = test system: Pythium ultimum; test: Threshold concentration test for use of the compounds against Pythium ultimum (infested soil, garden peas); type: in vivo; design: key to root evaluation (1-4): 4: white roots without fungous necrosis; 3: white roots, minor fungous necrosis; 2: brown roots, already more pronounced fungous necrosis; 1: heavy fungous necrosis, roots rotted; conditions: for root evaluation (1-4): 3 weeks; for number of sound peas: 20 grains per dish, 3 weeks at 20-24° C.
Outline: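 Pulverulent agents at 20% concentration mixed evenly into soil heavily infested with Pythium ultimum, then garden peas ('Wunder von Kelvedon', 20 per dish) sown at once. After three weeks at 20–24 °C in a hothouse, sound peas counted and roots scored on a 1–4 scale.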

[3] = test system: Tilletia caries; test: Treatment of oat seeds infested with Tilletia caries (spore germination); type: in vivo
[4] = test system: Piricularia oryzae; type: in vivo; conditions: 5 days
[5] = test system: Plasmopara viticola; test: Prophylactic leaf treatment of grapevines in the hothouse against Plasmopara viticola; type: in vivo
Procedure: Effects of prophylactic leaf treatment of grapevines in the hothouse against Plasmopara viticola
Young grapevine plants having from 5 to 8 leaves were sprayed dripping wet with the concentrations of active agents stated in the table below. After drying of the spray deposit the leaves were sprayed with an aqueous suspension of sporangia of the fungus (about 20,000 per ml); the spraying was applied to the bottom side of the leaves. The plants were then immediately incubated in a hothouse at a temperature of 22° to 24° C. and at maximum water saturation in the atmosphere. Beginning with the second day the humidity of the air was reduced for 3 to 4 days to normal level (30 to 70% saturation) and was then maintained for another day on the level of full saturation. Subsequently, the percentage portion of the fungus infested surface of each leaf was noted and the average per treatment was calculated in order to determine the fungicidal activity. This was done on the basis of the following formula: [formula]
The active compounds were applied in the form of a 20% concentration spray powder.

[6] = test system: Fusarium avenaceum; test: Threshold concentration test in case of Fusarium avenaceum (infested soil, garden peas); type: in vivo; conditions: for number of sound peas: 20 grains per dish, 18 days at 20-24° C.; for root evaluation (1-4): 18 days
Outline: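 Soil heavily infested with Fusarium avenaceum was mixed uniformly with a 20% powder formulation of active agent, then sown immediately with 20 garden pea seeds ('Wunder von Kelvedon') per dish. After 18 days in a greenhouse at 20° to 24° C., sound plants were counted and roots scored on a 1–4 scale.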

[7] = test system: Helminthosporium gramineum; test: Seed treatment in open field tests for infestation by Helminthosporium gramineum (barley); type: in vivo
Procedure: Seed treatment in open field tests for infestation by Helminthosporium gramineum
The active agents were used in the form of pulverulent compositions. After about 8 months in case of winter barley and after about 3 months in case of summer barley the infested plants were counted and the activity was calculated by the formula [formula]

[8] = test system: Helminthosporium gram; conditions: about 5 weeks
Procedure: Treatment of barley seeds infested with Helminthosporium gram
After emergence, the plants were subjected to illumination for 12 hours per day. After about 5 weeks the infested plants were counted and the total number of plants for each test were also counted. The active agents tested were used as pulverulent compositions.

[9] = concentration of active agent 0.005 (in gram)
[10] = concentration of active agent 0.025 (in gram)
[11] = concentration of active agent 0.1 (percentages)
[12] = concentration of active agent 0.001 (unit not given)
[13] = concentration of active agent 0.005 (unit not given)
[14] = concentration of active agent 0.025 (unit not given)
[15] = summer barley, 50 g active agent/100 kg barley, about 3 months

Compound | % activity [1, 9] [%] | % activity [1, 10] [%] | root evaluation (1-4) ([2]; 20 mg/l soil) | number of sound peas ([2]; 20 mg/l soil) | root evaluation (1-4) ([2]; 40 mg/l soil) | number of sound peas ([2]; 40 mg/l soil) | root evaluation (1-4) ([2]; 80 mg/l soil) | number of sound peas ([2]; 80 mg/l soil) | % activity ([3]; 20 g active agent per 100 kg) [%] | % activity ([3]; 50 g active agent per 100 kg) [%] | % activity [4, 11] [%] | % activity [5, 13] [%] | % activity [5, 14] [%] | % activity ([3]; 10 g active agent per 100 kg) [%] | % activity [7, 15] [%] | % activity ([8]; 20 g active agent per 100 kg) [%] | % activity ([8]; 50 g active agent per 100 kg) [%] | further results
N#CC1=C(C#N)C(=O)c2cc3ccccc3cc2C1=O [2,3-dinitrilo-1,4-anthraquinone, reference compound] | 86 | 94 | – | – | – | – | – | – | – | – | – | – | – | – | – | – | – | –
CCCC[S+]([O-])c1nnc(C(N)=O)s1 (stereo not shown) [5-butylsulfinyl-1,3,4-thiadiazole-2-carboxamide] | – | – | 1 | 10 | 4 | 15 | 4 | 19 | 95 | 100 | 93 | 99.8 | 100 | – | – | – | – | % activity [5, 12]: 75%
CC(C)CS(=O)(=O)c1nnc(C#N)s1 [5-isobutylsulfonyl-1,3,4-thiadiazole-2-carbonitrile] | – | – | – | – | – | – | – | – | 93 | 100 | 100 | 87 | 99 | – | – | – | – | number of sound peas ([6]; 25 mg/l soil): 19; root evaluation (1-4) ([6]; 25 mg/l soil): 4; number of sound peas ([6]; 50 mg/l soil): 20; root evaluation (1-4) ([6]; 50 mg/l soil): 4; number of sound peas ([6]; 100 mg/l soil): 19; root evaluation (1-4) ([6]; 100 mg/l soil): 4; % activity [5, 12]: 79%
CC(C)S(=O)(=O)c1nnc(C(=O)NCC2CCCCC2)s1 [5-isopropylsulfonyl-1,3,4-thiadiazole-2-carboxylic acid-cyclohexylmethylamide] | – | – | – | – | – | – | – | – | 92 | 97 | 98 | 92 | 97 | – | – | – | – | –
CCCCNC(=O)c1nnc([S+](C)[O-])s1 (stereo not shown) [5-methylsulfinyl-1,3,4-thiadiazole-2-carboxylic acid-butylamide] | 86 | 99 | 2 | 12 | 4 | 15 | 4 | 17 | 99.8 | 100 | – | – | 93 | 99 | 100 | 97 | 100 | % activity ([8]; 10 g active agent per 100 kg): 67%
CC(C)NC(=O)c1nnc([S+](C)[O-])s1 (stereo not shown) [5-methylsulfinyl-1,3,4-thiadiazole-2-carboxylic acid-isopropylamide] | 71 | 90 | 4 | 19 | 4 | 19 | 4 | 20 | 100 | 100 | 90 | – | 90 | – | – | 96 | 100 | –
CCCNC(=O)c1nnc([S+](C)[O-])s1 (stereo not shown) [5-methylsulfinyl-1,3,4-thiadiazole-2-carboxylic acid-propylamide] | 62 | 99.7 | 4 | 14 | 4 | 15 | 4 | 15 | 100 | 100 | – | 75 | 99 | 99 | 97 | 98 | 100 | % activity ([8]; 10 g active agent per 100 kg): 75%
CN(C)C(=O)c1nnc(S(C)(=O)=O)s1 [5-methylsulfonyl-1,3,4-thiadiazole-2-carboxylic acid-dimethylamide] | – | – | 4 | 18 | 4 | 20 | 4 | 18 | – | – | 98 | – | – | – | – | 87 | 98 | % activity ([4]; concentration of active agent 0.02 (percentages)): 91%; % activity ([7]; winter barley, 50 g active agent/100 kg barley, about 8 months): 98%; % activity ([7]; winter barley, 100 g active agent/100 kg barley, about 8 months): 100%
CCNC(=O)c1nnc(S(C)(=O)=O)s1 [5-methylsulfonyl-1,3,4-thiadiazole-2-carboxylic acid-ethylamide] | 81 | 97 | 4 | 15 | 4 | 15 | 4 | 15 | 99.2 | 98 | 90 | 81 | 97 | 99.2 | 100 | – | 93 | –
CCCS(=O)(=O)c1nnc(C(=O)N(C)C)s1 [5-propylsulfonyl-1,3,4-thiadiazole-2-carboxylic acid-dimethylamide] | – | – | 2 | 17 | 4 | 20 | 4 | 19 | 100 | 100 | 93 | 75 | 90 | – | – | – | 93 | –
